Columns and labels:
Type in all cases: cell-based, human
[1] = tested on: hPSC-derived epicardial cells; experiment: Long-term expansion of hPSC-derived epicardial cells
Description: Long-Term Maintenance of hPSC-Derived Epicardial Cells: To expand the epicardial cells, confluent cells on day 3 or 4 of differentiation were split 1:3 at a density of 0.04 to 0.08 million cells/cm^2 using Versene (Life Technologies) or Accutase and routinely passaged onto gelatin-coated plates in LaSR basal medium or RPMI/Vc/Ins medium and 0.5 μM A83-01 (Stemgent) or 2 μM SB431542 (Stemgent) with medium changed daily until the cells reached confluence. Overnight treatment of 5 μM Y27632 and 1% human recombinant albumin (Sigma-Aldrich) on single cells during passage was used to improve cell attachment and survival, but they were not required once cells attached.
Flow Cytometry Analysis: Cells were dissociated into single cells with Accutase for 10 minutes and then fixed with 1% paraformaldehyde for 20 minutes at room temperature and stained with primary and secondary antibodies (Table 1) in PBS plus 0.1% Triton X-100 and 0.5% BSA. Data were collected on a FACSCaliber flow cytometer (Beckton Dickinson) and analyzed using FlowJo. FACS gating was based on the corresponding isotype antibody control.

[2] = tested on: hPSC-derived cardiac progenitors; experiment: Epicardial (WT1+) differentiation of hPSC-derived cardiac progenitors, flow cytometry at day 12; conditions: for cTnT+WT1+ cells: day 6 progenitors treated day 7 to day 9, day 12 flow cytometry; for WT1+ cell differentiation compared with 3 μM CHIR99021: 0.3 μM, day 7 to day 9, GiWiGi protocol, flow cytometry at day 12
Description: Epicardial Cell Generation Via Activation of Canonical Wnt Signaling: At day 6, cardiac progenitor cells were singularized with Accutase at 37° C. for 5 minutes and then seeded onto a gelatin-coated cell culture dish at 20,000-80,000 cells/cm^2 in LaSR basal medium (advanced DMEM/F12 with 100 μg/mL ascorbic acid) or RPMI/Vc/Ins medium (100 μg/mL ascorbic acid and 1 μg/mL human recombinant or bovine insulin (Sigma)) with 5 μM ROCK inhibitor Y-27632 for 24 hours. […] Data were collected on a FACSCaliber flow cytometer (Beckton Dickinson) and analyzed using FlowJo. FACS gating was based on the corresponding isotype antibody control. Pro-epicardium arises from ISL1+NKX2.5+ second heart field progenitors in vivo^1,41.

hPSCs = experiment: Cardiac progenitor induction from hPSCs, gene expression by quantitative RT-PCR; conditions: 6 μM CHIR99021 at day 0 in RPMI medium, H13 hESCs
Description: Cardiac Progenitor Induction Via Modulation of Canonical Wnt Signaling: When hPSCs maintained on a SyntheMax-coated surface achieved confluence, cells were singularized with Accutase (Innovative Cell Technologies) at 37° C. for 5 minutes and then seeded onto a SyntheMax-coated cell culture dish at 250,000 cells/cm^2 in mTeSR1 or E8 supplemented with 5 μM ROCK inhibitor Y-27632 (Selleckchem) (day −3) for 24 hours. Cells were then cultured in mTeSR1 or E8, changed daily. At day 0, cells were treated with 6 μM CHIR99021 (Selleckchem) for 24 hours in RPMI medium, followed by a change with RPMI medium at day 1. 2.5-5 μM IWP2 (Tocris) was added at day 3 and removed during the medium change at day 5.
(§1) RT-PCR and Quantitative RT-PCR: Total RNA was prepared with the RNeasy mini kit (QIAGEN) and treated with DNase (QIAGEN). 1 μg RNA was reverse transcribed into cDNA via Oligo (dT) with Superscript III Reverse Transcriptase (Invitrogen). Real-time quantitative PCR was done in triplicate with iQSYBR Green SuperMix (Bio-Rad). GAPDH was used as an endogenous housekeeping control.

[3] = tested on: hPSC-derived epicardial cells; experiment: EMT induction of hPSC-derived epicardial cells; conditions: 10 ng/mL bFGF, 5 ng/mL TGFβ1; for Cell morphology after treatment: H13 hESC-derived epicardial cells, day 18; for Expression of WT1 and ZO1: immunostaining; for EMT (CDH1 decreased, CDH2 and SNAIL2 increased versus untreated controls): qPCR and E-cadherin immunostaining
Description: Single Cell Passage and EMT Induction: Confluent WT1+ cells were dissociated into single cells with Accutase at 37° C. for 5 minutes and then seeded onto a gelatin-coated cell culture dish at 10,000 cells/cm^2 in LaSR basal medium supplemented with 5 μM ROCK inhibitor Y-27632 for 24 hr. After 24 hours, medium was changed to LaSR basal medium and cells were treated with TGFβ1 or bFGF (R&D Systems) as indicated. Medium was changed every 3 days until analysis.
Immunostaining Analysis: Cells were fixed with 4% paraformaldehyde for 15 minutes at room temperature and then stained with primary and secondary antibodies (Table 1) in PBS plus 0.4% Triton X-100 and 5% non-fat dry milk (Bio-Rad). Nuclei were stained with Gold Anti-fade Reagent with DAPI (Invitrogen). An epifluorescence microscope (Leica DM IRB) with a QImaging® Retiga 4000R camera was used for imaging analysis.
as §1

[4] = day 6 ISL1+NKX2.5+ progenitors treated 48 hours (day 7 to day 9), H13 hESC-derived day 12 cultures, concentrations per Table 3

Cc1cccc(-c2nn(C(=S)Nc3ccccc3)cc2-c2ccnc3ccccc23)n1 [A83-01] was tested, and the “Expandability of epicardial cells from additional hPSC lines” value ([1]; 19-9-11 iPSC-derived epicardial cells, 0.5 μM A83-01) was “expandable” and the “Expansion with retention of epithelial morphology and WT1 expression” value ([1]; H13 hESC-derived day 18 epicardial cells, treated 3 days, 0.5 μM) was “enabled expansion of hPSC-derived epicardial cells that retained polarized epithelial morphology and WT1 expression”.

Cc1c[nH]c(-c2cnc(NCCNc3ccc(C#N)cn3)nc2-c2ccc(Cl)cc2Cl)n1 [CHIR99021] was tested, and the “WT1+ cells” value ([2]; 3 μM CHIR, initial density 0.06 million cells per cm^2, LaSR basal medium, day 12) was “more than 95%”, the “WT1+ cells” value [2, 4] was “more than 85%” and the “Gene expression changes in the first 24 hr after addition” value (hPSCs) was “down-regulation of the pluripotency markers OCT4 and NANOG, and induction of the primitive streak like gene T”.

c1cc(-c2cnn3cc(-c4ccc(OCCN5CCCCC5)cc4)cnc23)ccn1 [dorsomorphin] was tested, and the “WT1+ cells” value [2, 4] was “about 10%” and the “cTnT+WT1+ cells” value [2] was 2%.

In the case of CC1=C(/C=C/C(C)=C/C=C/C(C)=C/C(=O)O)C(C)(C)CCC1 [retinoic acid], the “WT1+ cells” value [2, 4] is reported as “about 10%” and the “cTnT+WT1+ cells” value [2] is reported as 2%.

BIO-acetoxime was tested, and the “WT1+ cell differentiation compared with 3 μM CHIR99021” value [2] was “induced WT1+ cell differentiation to a similar extent as 3 μM CHIR99021”.

CHIR98014 was tested, and the “WT1+ cell differentiation compared with 3 μM CHIR99021” value [2] was “induced WT1+ cell differentiation to a similar extent as 3 μM CHIR99021”.

For “TGFβ: TGFβ pathway protein modulator (R&D Systems)”, the “Cell morphology after treatment” value [3] was “fusiform-shaped appearance”, the “Expression of WT1 and ZO1” value [3] was “significantly decreased” and the “EMT (CDH1 decreased, CDH2 and SNAIL2 increased versus untreated controls)” value [3] was “induced EMT”.

“bFGF: FGF pathway protein modulator (R&D Systems)” was tested, and the “Cell morphology after treatment” value [3] was “fibroid spindle”, the “Expression of WT1 and ZO1” value [3] was “significantly decreased” and the “EMT (CDH1 decreased, CDH2 and SNAIL2 increased versus untreated controls)” value [3] was “induced EMT”.

B1: Bone Morphogenetic Protein 4 (protein, UniProt P12644 293-408, looked up)
Bone morphogenetic protein 4: SPKHHSQRARKKNKNCRRHSLYVDFSDVGWNDWIVAPPGYQAFYCHGDCPFPLADHLNSTNHAIVQTLVNSVNSSIPKACCVPTELSAISMLYLDEYDKVVLKNYQEMVVEGCGCR
notes: TGFβ superfamily growth factor
In the case of B1, the “Cell population obtained in the presence of CHIR” value ([2]; co-treatment with CHIR (2 μM CHIR99021, FIG. 10), day 7 to day 9, day 12 flow cytometry of cTnT and WT1) is reported as “yielded an unknown population at the expense of WT1+ cells”, the “WT1+ cells” value [2, 4] is reported as “about 10%” and the “cTnT+WT1+ cells” value [2] is reported as 2%.

Reference: US11591569B2, “Methods for epicardial differentiation of human pluripotent stem cells” (Wisconsin Alumni Research Foundation, priority 2015, dated 2023)
